Our source for the GI50 and TGI values is PubChem BioAssay (NCI).

Some test systems named below: DU-145 prostate; HOP-62 NSCLC; OVCAR-4 ovarian; NCI/ADR-RES ovarian; PC-3 prostate; 786-0 renal; MCF7 breast; HS 578T breast; HOP-92 NSCLC; IGROV1 ovarian.
Common to all, as to assay: NCI anticancer screen, dose series, 48 h

Molecules are shown by their SMILES. Where “and” joins values, the source holds several entries; their conditions need not be identical. Equal values may be shown once.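 96-well plates; 48 h exposure; 5 concentrations. Endpoints by linear interpolation between flanking doses. Not reached: highest tested concentration assigned. At the GI50, growth is halved. At the TGI there is no net growth.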

Regarding `NC(N)=N/N=C/c1c(-c2ccsc2)nc2sccn12`, the GI50 with DU-145 prostate was 16.4 µM; in the experiment with HOP-62 NSCLC it was 14.3 µM; in the experiment on OVCAR-4 ovarian, 13.6 µM; with NCI/ADR-RES ovarian, 16.9 µM; in the experiment with PC-3 prostate, 13.2 µM; in the experiment on 786-0 renal, 12 µM. Further, the TGI with DU-145 prostate is 31.4 µM; in the experiment with HOP-62 NSCLC, 27.4 µM; with OVCAR-4 ovarian, 27.1 µM; in the experiment on NCI/ADR-RES ovarian, 32.7 µM; in the experiment on PC-3 prostate, 26 µM; with 786-0 renal, 24.3 µM.
On to `CC(C)C1=CC23CCC4C(C)(C(=O)O)CCCC4(C)C2CC1C1C(=O)N(c2ccc(Cc4ccc(N5C(=O)C6C7CC8C9(C)CCCC(C)(C(=O)O)C9CCC8(C=C7C(C)C)C6C5=O)cc4)cc2)C(=O)C13` (configuration not stated), for which the TGI in the experiment on MCF7 breast amounted to 18.9 µM; in the experiment on HS 578T breast, 32.8 µM; in the experiment with DU-145 prostate, 25.3 µM; with HOP-62 NSCLC, 25.2 µM; in the experiment on OVCAR-4 ovarian it was 33.2 µM; in the experiment on PC-3 prostate it was 15.7 µM. Moreover, the figures for the TGI with 786-0 renal and in the experiment on HOP-92 NSCLC were 22.8 µM and 36.8 µM, respectively.
As to `O=C1c2ccccc2C(=O)N1CCn1ccc(NC(c2ccccc2)(c2ccccc2)c2ccccc2)nc1=O`, the TGI in the experiment on IGROV1 ovarian was 58.4 µM; in the experiment on HOP-62 NSCLC, 33 µM; with OVCAR-4 ovarian it was 59.2 µM; in the experiment on 786-0 renal it was more than 100 µM; with HOP-92 NSCLC, 53.3 µM.
The matching figures for `COc1ccc2occ(CCC(=O)O)c2c1`: more than 100 µM, more than 100 µM, more than 100 µM, more than 100 µM and more than 100 µM.
In the case of `CCOC(=O)c1cnc2c(ccc3[nH]n(C)nc32)c1=O`, the TGI in the experiment on IGROV1 ovarian, in the experiment on HOP-62 NSCLC, in the experiment with 786-0 renal and with HOP-92 NSCLC was more than 100 µM each time.
For the molecule `S=C(Nc1ccc(Cl)cc1)Nc1ccc(-c2nc3ccccc3s2)cc1`, the GI50 in the experiment with IGROV1 ovarian is 16.8 µM; with HS 578T breast, 16.4 µM; in the experiment on DU-145 prostate it was 13.6 µM; in the experiment on HOP-62 NSCLC, 20.1 µM; in the experiment with OVCAR-4 ovarian it was 14.4 µM; with NCI/ADR-RES ovarian, 17.5 µM. Also, the GI50 in the experiment with PC-3 prostate was 14.3 µM; in the experiment on 786-0 renal, 16.3 µM; in the experiment with HOP-92 NSCLC, 17.2 µM. Moreover, the TGI is 37.9 µM in the experiment on IGROV1 ovarian; 39.2 µM in the experiment on HS 578T breast; 30 µM in the experiment with DU-145 prostate; 41 µM with HOP-62 NSCLC; 69.4 µM in the experiment on OVCAR-4 ovarian; 36.6 µM in the experiment on NCI/ADR-RES ovarian. For the same molecule, the values for the TGI in the experiment on PC-3 prostate, in the experiment on 786-0 renal and with HOP-92 NSCLC were 54.9 µM, 30.2 µM and 45.5 µM, respectively.
As for `CC1(C)COC(C2(C)C(=O)C=C(c3ccccc3)c3ccccc32)=N1` (configuration not stated), the TGI in the experiment with IGROV1 ovarian, in the experiment with HOP-62 NSCLC, in the experiment on OVCAR-4 ovarian, in the experiment on 786-0 renal and in the experiment with HOP-92 NSCLC was more than 100 µM throughout.
Turning to `O=C1CCC(Cl)=CC2CCCN12` (configuration not stated), the TGI with IGROV1 ovarian, in the experiment on HOP-62 NSCLC, in the experiment on 786-0 renal and with HOP-92 NSCLC was more than 100 µM throughout.
Regarding `CCN(CC)CCCN1CCc2c([nH]c3ccccc23)C1c1cccnc1` (configuration not stated), the TGI with IGROV1 ovarian, in the experiment with HOP-62 NSCLC, with OVCAR-4 ovarian, in the experiment on 786-0 renal and in the experiment on HOP-92 NSCLC was more than 100 µM each time.
Consider `CC(C)(C)NNC(=O)CCn1[nH]c(=O)c(Cl)c(Cl)c1=O`, for which the TGI in the experiment with IGROV1 ovarian, in the experiment on HOP-62 NSCLC, in the experiment with OVCAR-4 ovarian and in the experiment on 786-0 renal was more than 100 µM each time.
As to `OC(CC1SCCCS1)c1ccccc1` (configuration not stated), the TGI in the experiment on IGROV1 ovarian, in the experiment on HOP-62 NSCLC, in the experiment on OVCAR-4 ovarian and in the experiment with 786-0 renal was more than 100 µM in each case.
As for `Cc1ccc(S(=O)(=O)N(C=O)N=C2CCN(Cc3ccccc3)CC2)cc1`, the TGI in the experiment with IGROV1 ovarian, in the experiment on HOP-62 NSCLC, in the experiment with OVCAR-4 ovarian and in the experiment with 786-0 renal was more than 100 µM each time.
On to `CC1(C)C(C#N)C1C1=C(N2CCOCC2)[C@]2(C)C(OC(=O)c3ccccc3)CC[C@@H]2C1` (some centres not stated), for which the TGI in the experiment with MCF7 breast, with IGROV1 ovarian, in the experiment on HS 578T breast, in the experiment with HOP-62 NSCLC, in the experiment on OVCAR-4 ovarian and with NCI/ADR-RES ovarian was more than 100 µM throughout. Also, the TGI in the experiment with PC-3 prostate, with 786-0 renal and with HOP-92 NSCLC was more than 100 µM each time.
On to `CC[As](CC)SC[C@H](C)C(=O)N1CCC[C@H]1C(=O)O`, for which the GI50 with MCF7 breast is 0.0363 µM; in the experiment with IGROV1 ovarian, 0.214 µM; in the experiment on DU-145 prostate, 0.0297 µM; with HOP-62 NSCLC, 0.417 µM; in the experiment on OVCAR-4 ovarian, 0.334 µM; in the experiment with NCI/ADR-RES ovarian it was 0.0152 µM. Also, the values for the GI50 in the experiment on PC-3 prostate, in the experiment with 786-0 renal and in the experiment with HOP-92 NSCLC were 0.106 µM, 0.021 µM and 0.0177 µM, respectively. Moreover, the TGI worked out at 0.159 µM in the experiment with MCF7 breast; 1.11 µM in the experiment on IGROV1 ovarian; 0.104 µM in the experiment on DU-145 prostate; 1.37 µM in the experiment with HOP-62 NSCLC; 1.13 µM with OVCAR-4 ovarian; 0.13 µM in the experiment with NCI/ADR-RES ovarian. Further, the results for the TGI in the experiment with PC-3 prostate, in the experiment on 786-0 renal and with HOP-92 NSCLC were 0.589 µM, 0.0743 µM and 0.0933 µM, respectively.
Take `Clc1ccc2c(c1)[nH]c1c2nc2ccccn21`: the TGI in the experiment on IGROV1 ovarian was 85.8 µM and > 100 µM; in the experiment with HOP-62 NSCLC, > 100 µM and 55.6 µM; in the experiment on 786-0 renal, 37.5 µM and 33.1 µM. Moreover, the GI50 with HOP-62 NSCLC is 78 µM and 24.6 µM.
For the molecule `Nc1nc(Cl)cc(NCCCCCCCCNc2cc(Cl)nc(N)n2)n1`, the TGI in the experiment on IGROV1 ovarian was more than 100 µM; in the experiment on HOP-62 NSCLC, more than 100 µM; in the experiment with OVCAR-4 ovarian, more than 100 µM; in the experiment with 786-0 renal it was more than 100 µM; in the experiment with HOP-92 NSCLC, 85.4 µM.
For the molecule `O=[N+]([O-])c1cccc(C2=NN(c3ccccc3)C[N+](c3ccc(Br)cc3)=N2)c1`, the TGI in the experiment with IGROV1 ovarian, in the experiment on HOP-62 NSCLC, with OVCAR-4 ovarian, in the experiment with 786-0 renal and in the experiment with HOP-92 NSCLC was more than 100 µM each time.
`CN1CC(=O)N2Cc3ccccc3-n3cccc3C2C1` (configuration not stated): the TGI in the experiment with IGROV1 ovarian, with HOP-62 NSCLC, with OVCAR-4 ovarian and with 786-0 renal was more than 100 µM each time.
Regarding `Cc1cn2c(=O)c3ncn(C4OC(CO)C(O)C4O)c3n(C)c2n1` (configuration not stated), the TGI in the experiment with IGROV1 ovarian, with OVCAR-4 ovarian, in the experiment with 786-0 renal and in the experiment with HOP-92 NSCLC was more than 100 µM throughout.
